Where “and” joins values, the source holds several entries; their conditions need not be identical. Equal values may be shown once. Read-outs that look alike come from different tables or passages of the source.
Experiments:
[1] = Moisture stability of tetrathiotungstate salts; format: physicochemical
[2] = Copper-binding ability: inhibition of cysteine autooxidation; format: biochemical; conditions: 100 μM Cys, 100 μM coumarin-3-carboxylic acid, 100 μM CuSO4
Experimental: The copper-binding ability of tetrathiotungstate salts was determined according to the ability of tetrathiotungstate salts to inhibit cysteine autooxidation as reported in Table 2 below.

[3] = test system: angiogenesis; experiment: Matrigel plug assay (inhibition of angiogenesis); format: in vivo, athymic nude mice; conditions: FIG. 1
Experimental: This assay is performed essentially as described by Passaniti et al., Lab Invest. 1992, 67:519-528. Ice-cold Matrigel® (e.g., 500 μL) (Collaborative Biomedical Products, Inc., Bedford, Mass.) is mixed with heparin (e.g., 50 μg/ml), FGF-2 (e.g., 400 ng/ml) and the compound to be tested. In some assays, bFGF may be substituted with tumor cells as the angiogenic stimulus. The Matrigel® mixture is injected subcutaneously into 4-8 week-old athymic nude mice at sites near the abdominal midline, preferably 3 injections per mouse. The injected Matrigel®b forms a palpable solid gel. […] Hemoglobin (Hb) levels are determined using Drabkin's solution (e.g., obtained from Sigma) according to the manufacturers' instructions. […] The amount of fluorescence in the dispersed plug which is determined fluorimetrically serves as a measure of angiogenesis in the plug. […]
Ammonium tetrathiotungstate was assayed in the Matrigel® plug assay as described in Section 5.4.7, supra. Two positive controls were used with positive control 1 measured five days after implantation when treatment began and […] measured five days after implantation when treatment ended. Two negative controls were used with negative control 1 measured five days after implantation when treatment began and […] measured five days after implantation when treatment ended.

[4] = room temperature, 95% relative humidity, two weeks, purity by absorbance, * = partially soluble, ‡ = average of 2 data points

Molecule | % degradation [1] | % inhibition ([2]; inhibitor concentration 1 μM) | % inhibition ([2]; inhibitor concentration 10 μM) | % inhibition ([2]; inhibitor concentration 50 μM) | % degradation [1, 4] | inhibition of angiogenesis [3]
C[N+](C)(C)CCO.C[N+](C)(C)CCO.[S]=[Mo](=[S])([S-])[S-] [Tetrathiomolybdate, bis (choline), reference compound] | 36 ± 2% |  |  |  |  | 
[NH4+].[NH4+].[SH-].[SH-].[S]=[Mo]=[S] [Tetrathiomolybdate, bis(ammonium), reference compound] |  | 68.48% | 87.71% and 76.69% | 94.24% |  | 
C[N+]1(C)CCCC1.C[N+]1(C)CCCC1.[S]=[W](=[S])([S-])[S-] [Tetrathiotungstate, bis(1,1-dimethylpyrrolidinium)] |  |  |  |  | 0.04% | 
Cc1cc[n+](C)cc1.Cc1cc[n+](C)cc1.[S]=[W](=[S])([S-])[S-] [Tetrathiotungstate, bis(1,4-dimethylpyridinium)] |  |  |  | 89.98% and 89.66% | 2.0% | 
C[n+]1ccccc1C=NO.C[n+]1ccccc1C=NO.[S]=[W](=[S])([S-])[S-] [Tetrathiotungstate, bis(2-hydroxyiminomethyl-1-methyl-pyridinium)] |  |  |  | 91.15% | 5.6% | 
CC(=O)OC(C)C[N+](C)(C)C.CC(=O)OC(C)C[N+](C)(C)C.[S]=[W](=[S])([S-])[S-] (stereo not drawn) [Tetrathiotungstate, bis(acetyl-β-methylcholine)] |  |  |  | 90.40% | 4.2% | 
CC(=O)OCC[N+](C)(C)C.CC(=O)OCC[N+](C)(C)C.[S]=[W](=[S])([S-])[S-] [Tetrathiotungstate, bis(acetylcholine)] | 2.4% |  |  | 90.36% |  | 
C[N+](C)(C)Cc1ccccc1.C[N+](C)(C)Cc1ccccc1.[S]=[W](=[S])([S-])[S-] [Tetrathiotungstate, bis(benzzyltrimethylammonium)] |  |  |  | 94.62% | 0.41% | 
C[N+](C)(C)CCO.C[N+](C)(C)CCO.[S]=[W](=[S])([S-])[S-] [Tetrathiotungstate, bis(choline)] | 3.0% |  |  | 92.54% and 91.99% |  | 
CCn1cc[n+](C)c1.CCn1cc[n+](C)c1.[S]=[W](=[S])([S-])[S-] [Tetrathiotungstate, bis(l-ethyl-3-methyl-1H-imidazolium)] |  |  |  | 91.16% | 1.3% | 
CC[N+](CC)(CC)c1ccccc1.CC[N+](CC)(CC)c1ccccc1.[S]=[W](=[S])([S-])[S-] [Tetrathiotungstate, bis(triethylphenyl ammonium)] |  |  |  | 91.32% | −0.12% | 
C[N+](C)(C)c1ccccc1.C[N+](C)(C)c1ccccc1.[S]=[W](=[S])([S-])[S-] [Tetrathiotungstate, bis(trimethylphenylammonium)] |  |  |  | 91.53% | −0.46% | 
C[N+](C)(C)CCOC(=O)CCCCCCC(=O)OCC[N+](C)(C)C.[S]=[W](=[S])([S-])[S-] [Tetrathiotungstate, suberyldicholine] |  | 67.74% | 77.83% |  | 18.4* % | 
NCCNCCNCCN [trientine, reference compound] |  | 0.00% |  | 39.71% |  | 
Tetrathiotungstate, (succinylcholine) |  | 66.06% | 81.38% |  | 23.3* % | 
Tetrathiotungstate, bis(ammonium) [reference compound] |  |  |  | 95.94% | −0.46% | about 34%
Tetrathiotungstate, butane-1,4-bis(trimethylammonium) |  |  | 87.32% | 91.75% |  | 
Tetrathiotungstate, ethylenebis(trimethylammonium) |  |  | 84.66% | 89.60% | 8.6* % | 
Tetrathiotungstate, pentane-1,5-bis(trimethylammonium) |  |  |  | 90.69% |  | 
Tetrathiotungstate, propane-1,3-bis(trimethylammonium) |  |  | 85.53% | 92.95% |  | 

Source: patent publication US7851505B2, “Thiotungstate analogues and uses thereof” (priority 2003, dated 2010)
